Test results published in ChEMBL document CHEMBL3808311, “Inhibitors of Renal Outer Medullary Potassium Channel” (ACS Med Chem Lett, 2016).

Target: T1, ATP-sensitive inward rectifier potassium channel 1 (Homo sapiens, UniProt P48048)
T1 sequence (P48048 whole entry): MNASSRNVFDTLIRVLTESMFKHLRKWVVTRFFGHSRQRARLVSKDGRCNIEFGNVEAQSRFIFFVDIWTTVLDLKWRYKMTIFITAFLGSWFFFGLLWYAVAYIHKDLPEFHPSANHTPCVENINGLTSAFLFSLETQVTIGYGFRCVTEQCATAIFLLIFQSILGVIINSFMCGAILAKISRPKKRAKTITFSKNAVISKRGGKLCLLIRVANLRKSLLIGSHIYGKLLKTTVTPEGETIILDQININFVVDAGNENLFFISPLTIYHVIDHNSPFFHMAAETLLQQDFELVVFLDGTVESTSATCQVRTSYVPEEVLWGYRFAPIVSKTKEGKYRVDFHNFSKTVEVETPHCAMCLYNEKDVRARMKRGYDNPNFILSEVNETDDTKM
Assay: Inhibition of human Kir1.1 expressed in HEK293 cells after 30 mins by thallium flux assay
Format: cell-based

IC50 | SMILES
32 nM | C[C@@H]1CC2(CCN(C[C@H](O)c3ccc4c(c3)-c3nnnn3C4)CC2)C(=O)N1C1=CC(=O)OC1
20 nM | C[C@H]1CC2(CCN(C[C@H](O)c3ccc4c(c3)-c3nnnn3C4)CC2)C(=O)N1C1=CC(=O)OC1
14 nM | C[C@H]1CC2(CCN(C[C@@H](O)c3ccc4c(c3)-c3nnnn3C4)CC2)C(=O)N1C1=CC(=O)OC1
7 nM | C[C@@H]1CC2(CCN(C[C@@H](O)c3ccc4c(c3)-c3nnnn3C4)CC2)C(=O)N1C1=CC(=O)OC1

The next lines start with the molecule.

SMILES | IC50
CC1=C(N2CCC3(CCN(C[C@H](O)c4ccc5c(c4)-c4nnnn4C5)C[C@H]3F)C2=O)COC1=O (stereo partly specified) | 43 nM
CC1=C(N2CCC3(CCN(C[C@H](O)c4ccc5c(c4)-c4nnnn4C5)C[C@@H]3F)C2=O)COC1=O (stereo partly specified) | 35 nM
CC1=C(N2CCC3(CCN(C[C@@H](O)c4ccc5c(c4)-c4nnnn4C5)CC3)C2=O)COC1=O | 19 nM
CC1=C(N2CCC3(CCN(C[C@@H](O)c4cc5c(cc4Cl)Cn4nnnc4-5)CC3)C2=O)COC1=O | 9 nM
CC1=C(N2CCC3(CCN(C[C@H](O)c4ccc5c(c4)-c4nnnn4C5)CC3)C2=O)COC1=O | 11 nM
CC1=C(N2CCC3(CCN(C[C@H](O)c4cc5c(cc4C)Cn4nnnc4-5)CC3)C2=O)COC1=O | 17 nM
CC1=C(N2CCC3(CCN(C[C@H](O)c4cc5c(cc4Cl)Cn4nnnc4-5)CC3)C2=O)COC1=O | 31 nM
